Measurements published in patent US20040063734A1, “4,4-Disubstituted-3,4-dihydro-2 (1H)-quinazoliniones useful as HIV reverse transcriptase inhibitors” (priority 2002, published 2004).
Values after ≈ are worked out from the molar mass of the structure shown.

System: HIV-1 (RF)
Assay: HIV RNA assay: microplate based compound evaluation in HIV-1 infected MT-2 cells
Format: cell-based
Conditions: Human immunodeficiency virus 1, MT2, 72 h; HIV-1 (RF) infected MT-2 cells, 3 days culture; value used to standardize the virus inoculum; read-out: IC90 (concentration of compound required to reduce the HIV RNA level by 90%)
Procedure: DNA Plasmids and in vitro RNA Transcripts:
Plasmid pDAB 72 containing both gag and pol sequences of BH10 (bp 113-1816) cloned into PTZ 19R was prepared according to Erickson-Viitanen et al. AIDS Research and Human Retroviruses 1989, 5, 577. The plasmid was linearized with Bam HI prior to the generation of in vitro RNA transcripts using the Riboprobe Gemini system II kit (Promega) with T7 RNA polymerase. Synthesized RNA was purified by treatment with RNase free DNAse (Promega), phenol-chloroform extraction, and ethanol precipitation. RNA transcripts were dissolved in water, and stored at −70° C. The concentration of RNA was determined from the A260.
Biotinylated capture probes were purified by HPLC after synthesis on an Applied Biosystems (Foster City, Calif.) DNA synthesizer by addition of biotin to the 5′ terminal end of the oligonucleotide, using the biotin-phosphoramidite reagent of Cocuzza, Tet. Lett. 1989, 30, 6287. […]
MT-2 and MT-4 cells were maintained in RPMI 1640 supplemented with 5% fetal calf serum (FCS) for MT-2 cells or 10% FCS for MT-4 cells, 2 mM L-glutamine and 50 μg/mL gentamycin, all from Gibco. […] Infectious titers of HIV-1(RF) stocks were 1-3×10^7 PFU (plaque forming units)/mL as measured by plaque assay on MT-2 cells (see below). […]

IC90: 0.2 µg/mL (≈ 0.947 µM)
SMILES: Nc1ccn([C@H]2CC[C@@H](CO)O2)c(=O)n1 [ddC, 2′,3′-dideoxycytidine]
